Earlier results in US11376295B2, “Method for preparing Rhus verniciflua stokes extract containing increased fisetin content, and metastasis-inhibiting anticancer agent composition containing same” (MEDIENCE CO.,LTD, priority 2018, dated 2022).

Settings: among flavonoids of the Rhus verniciflua Stokes extract; result of research, background

SMILES | anticancer activity
O=C1c2ccc(O)cc2O[C@H](c2ccc(O)c(O)c2)[C@H]1O [fustin] | low anticancer activity
O=c1c(O)c(-c2ccc(O)c(O)c2)oc2cc(O)ccc12 [fisetin] | highest anticancer activity
